Publication PMC7381729, “A new class of PentixaFor- and PentixaTher-based theranostic agents with enhanced CXCR4-targeting efficiency” (Theranostics, 2020)
Read-outs that look alike come from different tables or passages of the source. Where a SMILES comes first, the peptide text is derived from it. Side-chain parts run from the residue outwards. [ ]: non-standard residue; d: D form. The star is where a group is joined. DOTA = O=C(O)CN1CCN(CC(=O)O)CCN(CC(=O)*)CCN(CC(=O)O)CC1; dTyr(3-I) = N[C@H](Cc1ccc(O)c(I)c1)C(=O)O; 2Nal = N[C@@H](Cc1ccc2ccccc2c1)C(=O)O; dNMeOrn = CN[C@H](CCCN)C(=O)O; 4Abz = Nc1ccc(C(=O)O)cc1

What was measured:
human CXCR4 (hCXCR4) = biological target: T1, human CXCR4 (hCXCR4) (Homo sapiens, UniProt P61073); assay: Competition binding to hCXCR4, Jurkat cells, [125I]FC-131 as radioligand; details: Jurkat cells 400.000 cells/sample, means ± SD of min. three separate experiments
T1 construct: hCXCR4-expressing Jurkat human T-cell leukemia cells; endogenous in cells; host or cells: Jurkat human T-cell leukemia cells (whole cells)
T1 sequence (P61073 whole entry): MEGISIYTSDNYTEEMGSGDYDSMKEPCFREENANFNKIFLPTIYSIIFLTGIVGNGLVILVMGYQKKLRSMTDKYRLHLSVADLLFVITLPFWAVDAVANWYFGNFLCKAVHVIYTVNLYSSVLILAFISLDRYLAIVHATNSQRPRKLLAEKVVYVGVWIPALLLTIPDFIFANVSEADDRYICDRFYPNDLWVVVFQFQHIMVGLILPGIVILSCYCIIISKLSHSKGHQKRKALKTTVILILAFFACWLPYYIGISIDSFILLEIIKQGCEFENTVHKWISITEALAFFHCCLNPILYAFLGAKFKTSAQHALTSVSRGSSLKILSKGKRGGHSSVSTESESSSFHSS
Method: Experiments were performed in triplicate with n=3 per concentration in each experiment. IC50 values were calculated using GraphPad Prism 6.01 (Graph Pad Software, San Diego, USA).
Figure 2 Binding affinities (IC50 in nM) of the respective ^natGa-, ^natLu-, ^natY- and ^natBi-complexes of PentixaFor (entry 1), PentixaTher (entry 2) and a series of CPCR4-(blue) and iodoCPCR4-(black) derived analogs with modified linker structure (entries 3-14) to human CXCR4 (hCXCR4). […] Each experiment was performed in triplicate, and results are means ± SD from a minimum of three separate experiments. TEXT PRINTED IN THE PICTURE: 1: ^natGa-complex IC50 [nM]: 24.8 ± 2.5; ^natLu-complex IC50 [nM]: 41 ± 12; ^natY-complex IC50 [nM]: 40 ± 27 | 2: ^natGa-complex IC50 [nM]: 6.1 ± 1.5; ^natLu-complex IC50 [nM]: 14.6 ± 1.0; ^natY-complex IC50 [nM]: 20.4 ± 0.3; ^natBi-complex IC50 [nM]: 24.4 ± 3.7 | 3: ^natGa-complex IC50 [nM]: 282 ± 90; ^natLu-complex IC50 [nM]: 12.5 ± 3.2; ^natY-complex IC50 [nM]: 216 ± 33; ^natBi-complex IC50 [nM]: 27 ± 14 | 4: ^natGa-complex IC50 [nM]: 14.4 ± 0.3; ^natLu-complex IC50 [nM]: 28 ± 9; ^natY-complex IC50 [nM]: 83 ± 30 | 5: ^natLu-complex IC50 [nM]: 106 ± 10 | 6: ^natGa-complex IC50 [nM]: 7.9 ± 1.1; ^natLu-complex IC50 [nM]: 5.9 ± 0.3; ^natY-complex IC50 [nM]: 6.7 ± 1.2; ^natBi-complex IC50 [nM]: 14.5 ± 0.2 | 7: ^natGa-complex IC50 [nM]: 47 ± 8; ^natLu-complex IC50 [nM]: 39 ± 1; ^natY-complex IC50 [nM]: 43 ± 2 | 8: ^natGa-complex IC50 [nM]: 3.6 ± 0.7; ^natLu-complex IC50 [nM]: 3.5 ± 0.3; ^natY-complex IC50 [nM]: 4.1 ± 1.3; ^natBi-complex IC50 [nM]: 3.5 ± 0.4 | 9: ^natGa-complex IC50 [nM]: 8.9 ± 3.8; ^natLu-complex IC50 [nM]: 8.0 ± 3.1; ^natY-complex IC50 [nM]: 6.3 ± 2.5 | 10: ^natGa-complex IC50 [nM]: 2.4 ± 0.1; ^natLu-complex IC50 [nM]: 3.6 ± 1.1; ^natY-complex IC50 [nM]: 2.4 ± 0.2; ^natBi-complex IC50 [nM]: 38 ± 25 | 11: ^natGa-complex IC50 [nM]: 9.7 ± 2.8; ^natLu-complex IC50 [nM]: 5.4 ± 1.6; ^natY-complex IC50 [nM]: 8.7 ± 2.9 | 12: ^natGa-complex IC50 [nM]: 1.4 ± 0.2; ^natLu-complex IC50 [nM]: 2.1 ± 0.3; ^natY-complex IC50 [nM]: 2.1 ± 0.3; ^natBi-complex IC50 [nM]: 2.9 ± 0.1 | 13: ^natGa-complex IC50 [nM]: 0.4 ± 0.1; ^natLu-complex IC50 [nM]: 1.5 ± 0.1; ^natY-complex IC50 [nM]: 1.5 ± 0.1 | 14: ^natGa-complex IC50 [nM]: 2.6 ± 1.0; ^natLu-complex IC50 [nM]: 1.7 ± 0.6; ^natY-complex IC50 [nM]: 1.6 ± 0.5; ^natBi-complex IC50 [nM]: 1.8 ± 0.8

[1] = Lipophilicity, modified shake-flask method; type: physicochemical; details: O/PBS, radiolabeled compound, means ± SD (n=6)
Method: The lipophilicity (log PO/PBS) of the ^68Ga- and ^177Lu-labeled compounds in this study was determined via a modified shake-flask method.

[2] = test system: Daudi (human B-cell lymphoma) xenograft bearing CB-17 SCID mice; assay: Biodistribution in Daudi xenograft bearing mice; type: in vivo, mouse; details: 1h p.i., tracer only, i.v.; γ-counter; means ± SD, n=4-5 (68Ga: n=4)
Method: (§1) The biodistribution of selected compounds was investigated in Daudi (human B-cell lymphoma) xenograft bearing female CB-17 SCID mice (6-8 weeks, Charles River, Sulzfeld, Germany), [29]. All animal experiments were performed in accordance with current animal welfare regulations in Germany (approval #55.2-1-54-2532-71-13).
(§2) Animals (n=4-5 per group) were injected intravenously with 5-10 MBq (0.08-0.11 nmol peptide per mouse) of the respective ^68Ga- and^ 177Lu-labeled CXCR4 ligands in PBS (100 µL) into the tail vein under isoflurane anesthesia. CXCR4-specificity of binding was determined by coinjection of 50 µg AMD3100 per mouse. The animals were sacrificed 1, 6 and 48h post injection (p.i.), and the organs of interest were dissected. The radioactivity was measured in weighted tissue samples using a γ-counter. Data are expressed in % ID/g tissue (mean ± SD).

[3] = Biodistribution in Daudi xenograft bearing mice; type: in vivo, mouse; details: female, CB-17 SCID, mouse, iv, total radioactivity, 1h p.i., tracer only, i.v., γ-counter, means ± SD, n=4-5 (68Ga: n=4)
Method: as §1, §2

[4] = Small animal PET imaging in Daudi xenograft bearing mice; type: in vivo; details: CB17 SCID, mouse, iv, total radioactivity, 90 min p.i., dynamic PET, ROI analysis, n=1 per compound
Method: Small aminal PET imaging studies were performed using a Siemens Inveon PET scanner. Animals were anesthetized with isoflurane and injected via the tail vein with 10 to 15 MBq (0.1 nmol) of the respective tracer. Dynamic imaging (n=1 per compound) was performed after on-bed injection for 1.5 h, and static images (n=1 per compound) were acquired at 1 h p.i. with an acquisition time of 15 min. Data analysis was performed using the Inveon Research Workplace software. Images were reconstructed using a 3D ordered-subsets expectation maximum (OSEM3D) algorithm without scanner and attenuation correction. Time-activity curves (Figure 4) were obtained by generating isocontour regions of interest (ROI) for the tumor and the heart content (as a surrogate for blood activity), as well as by defining two spherical ROIs (each 23.4 mm^3) in the thigh area (muscle) and areas of homogenous tracer uptake in the liver, followed by plotting of average activity ± SD per volume in these ROIs over time.  Figure 4 Results from small animal PET imaging using [^68Ga]PentixaFor (top row), [^68Ga]DOTA-r-a-ABA-CPCR4 (middle row) and [^68Ga]DOTA-r-a-ABA-iodoCPCR4 (bottom row) in Daudi xenograft bearing CB17 SCID mice. Images on the left (MIP) were obtained by static imaging (1h p.i., n=1), the time activity curves (TAC) on the right were acquired by dynamic PET imaging (0-90 min p.i., n=1).

[5] = natBi-complex, read-out: ^natBi-complex IC50 to hCXCR4
[6] = natGa-complex, read-out: ^natGa-complex IC50 to hCXCR4
[7] = natLu-complex, read-out: ^natLu-complex IC50 to hCXCR4
[8] = natY-complex, read-out: ^natY-complex IC50 to hCXCR4

Row | Molecule | IC50 (human CXCR4 (hCXCR4); [6]) [nM] | IC50 (human CXCR4 (hCXCR4); [7]) [nM] | IC50 (human CXCR4 (hCXCR4); [8]) [nM] | also measured
1 | DOTA-AMBS-iodoCPCR4 (head to tail) [entry 2, PentixaTher] | 6.1 ± 1.5 | 14.6 ± 1 | 20.4 ± 0.3 | IC50 (human CXCR4 (hCXCR4); [5]): 24.4 ± 3.7 nM
2 | DOTA-r-G-ABA-CPCR4 [entry 11] | 9.7 ± 2.8 | 5.4 ± 1.6 | 8.7 ± 2.9 | –
3 | CN1C(=O)[C@@H](Cc2ccc(O)c(I)c2)NC(=O)CNC(=O)[C@H](Cc2ccc3ccccc3c2)NC(=O)[C@H](CCCNC(=N)N)NC(=O)[C@H]1CCCNC(=O)c1ccc(NC(=O)CNC(=O)[C@@H](CCCNC(=N)N)NC(=O)CN2CCN(CC(=O)O)CCN(CC(=O)O)CCN(CC(=O)O)CC2)cc1 [[^68Ga]DOTA-r-G-ABA-iodoCPCR4] [metal not drawn] (cyclo([2Nal]G[dTyr(3-I)][dNMeOrn]([4Abz-Gly-dR-DOTA])R)) | – | – | – | log PO/PBS [1]: -3.0 ± 0.02
4 | C[C@@H](NC(=O)[C@@H](CCCNC(=N)N)NC(=O)CN1CCN(CC(=O)O)CCN(CC(=O)O)CCN(CC(=O)O)CC1)C(=O)Nc1ccc(C(=O)NCCC[C@@H]2C(=O)N[C@@H](CCCNC(=N)N)C(=O)N[C@@H](Cc3ccc4ccccc4c3)C(=O)NCC(=O)N[C@H](Cc3ccc(O)cc3)C(=O)N2C)cc1 [[^68Ga]DOTA-r-a-ABA-CPCR4] [metal not drawn] (cyclo([2Nal]G[dY][dNMeOrn]([4Abz-dA-dR-DOTA])R)) | – | – | – | Biodistribution blood [2]: 3.95 ± 0.89 %iD/g; Biodistribution liver [2]: 5.63 ± 0.51 %iD/g; log PO/PBS [1]: -3.6 ± 0.06
5 | DOTA-d-ABA-iodoCPCR4 (head to tail) [entry 5] | – | 106 ± 10 | – | –
6 | DOTA-k-G-ABA-CPCR4 [entry 9] | 8.9 ± 3.8 | 8 ± 3.1 | 6.3 ± 2.5 | –
7 | DOTA-G-ABA-iodoCPCR4 (head to tail) [entry 6] | 7.9 ± 1.1 | 5.9 ± 0.3 | 6.7 ± 1.2 | IC50 (human CXCR4 (hCXCR4); [5]): 14.5 ± 0.2 nM
8 | CN1C(=O)[C@@H](Cc2ccc(O)c(I)c2)NC(=O)CNC(=O)[C@H](Cc2ccc3ccccc3c2)NC(=O)[C@H](CCCNC(=N)N)NC(=O)[C@H]1CCCNC(=O)c1ccc(NC(=O)CNC(=O)[C@@H](CCCNC(=N)N)NC(=O)CN2CCN(CC(=O)O)CCN(CC(=O)O)CCN(CC(=O)O)CC2)cc1 [[^177Lu]DOTA-r-G-ABA-iodoCPCR4] [metal not drawn] (cyclo([2Nal]G[dTyr(3-I)][dNMeOrn]([4Abz-Gly-dR-DOTA])R)) | – | – | – | log PO/PBS [1]: -2.7 ± 0.05
9 | DOTA-ABA-iodoCPCR4 (head to tail) [entry 3] | 282 ± 90 | 12.5 ± 3.2 | 216 ± 33 | IC50 (human CXCR4 (hCXCR4); [5]): 27 ± 14 nM
10 | C[C@@H](NC(=O)[C@@H](CCCNC(=N)N)NC(=O)CN1CCN(CC(=O)O)CCN(CC(=O)O)CCN(CC(=O)O)CC1)C(=O)Nc1ccc(C(=O)NCCC[C@@H]2C(=O)N[C@@H](CCCNC(=N)N)C(=O)N[C@@H](Cc3ccc4ccccc4c3)C(=O)NCC(=O)N[C@H](Cc3ccc(O)c(I)c3)C(=O)N2C)cc1 [[^68Ga]DOTA-r-a-ABA-iodoCPCR4, metal not drawn] (cyclo([2Nal]G[dTyr(3-I)][dNMeOrn]([4Abz-dA-dR-DOTA])R)) | – | – | – | tissue uptake at 1 h ([3]; blood, read-out: Biodistribution blood): 3.71 ± 0.28 %ID/g; tissue uptake at 1 h ([3]; colon, read-out: Biodistribution colon): 0.65 ± 0.29 %ID/g; tissue uptake at 1 h ([3]; femur, read-out: Biodistribution femur): 1.41 ± 0.16 %ID/g; tissue uptake at 1 h ([3]; heart, read-out: Biodistribution heart): 1.56 ± 0.2 %ID/g; tissue uptake at 1 h ([3]; kidney, read-out: Biodistribution kidney): 6.25 ± 0.52 %ID/g; tissue uptake at 1 h ([3]; muscle, read-out: Biodistribution muscle): 0.49 ± 0.08 %ID/g; tissue uptake at 1 h ([3]; pancreas, read-out: Biodistribution pancreas): 0.88 ± 0.06 %ID/g; tissue uptake at 1 h ([3]; small intestine, read-out: Biodistribution small intestine): 1.18 ± 0.03 %ID/g; tissue uptake per volume at 1.5 h ([4]; kidney, read-out: Kidney uptake in PET): 4.3 ± 0.4 %ID/mL; tissue uptake per volume at 1.5 h ([4]; liver, average ± SD per volume in ROI, read-out: Liver uptake in PET): 6.1 ± 0.1 %ID/mL; tissue uptake per volume at 1.5 h ([4]; tumor (Daudi xenograft), Daudi xenograft, read-out: Tumor accumulation in PET): 14.2 ± 1.5 %ID/mL
11 | PentixaFor [entry 1, reference compound] | 24.8 ± 2.5 | 41 ± 12 | 40 ± 27 | –
